Data published in PubChem BioAssay AID2060492 (Molecular Pharmacology Branch, DTP, NCI, 2025).
pIC50: −log10 of the molar value.

System: 695427-040-R-J1-PDC complex spheroids, viability percent T/C
Experiment: Anticancer human tumor 695427-040-R-J1-PDC patient-derived colon adenocarcinoma cell line growth inhibition [GQUAD]
Details: for pIC50: curve of first compound; for viability, T/C: stronger effect = lower value
In short: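 Multi-cell-type spheroids of tumor cells with HUVEC and mesenchymal stem cells, treated with drug combinations. Concentrations descend in half-log steps from near clinical Cmax, or from 10 microM where Cmax is unknown; viability read-out.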

[1] = second compound 0.0316 µM, first compound 0.0316 µM
[2] = second compound 0.0316 µM, first compound 0.316 µM
[3] = second compound 0.1 µM, first compound 0.0316 µM
[4] = second compound 0.1 µM, first compound 0.316 µM
[5] = second compound 0.316 µM, first compound 0.0316 µM
[6] = second compound 0.316 µM, first compound 0.316 µM
[7] = second compound 1 µM, first compound 0.0316 µM
[8] = second compound 1 µM, first compound 0.316 µM
[9] = second compound 3.16 µM, first compound 0.0316 µM
[10] = second compound 3.16 µM, first compound 0.316 µM
[11] = second compound 10 µM, first compound 0.0316 µM
[12] = second compound 10 µM, first compound 0.316 µM
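Further: spheroids exposed to compounds for seven days before readout.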

For `COc1ncnc(C2CC2)c1-c1ncc2cnn(Cc3ccc(-c4nc(C(F)(F)F)cn4C(C)C)cc3)c2n1` + Cc1[nH]c2ccc(F)cc2c1-c1nc2c3cccnc3c3ncccc3c2[nH]1, the pIC50 (second compound 0.0316 µM) was less than 5.00, the pIC50 (second compound 0.1 µM) was less than 5.00 and the pIC50 (second compound 0.316 µM) was less than 5.00. For the same compound, the pIC50 (second compound 1 µM) was less than 5.00, the pIC50 (second compound 3.16 µM) was less than 5.00 and the pIC50 (second compound 10 µM) was less than 5.00. The viability, T/C [1] was 98%, the viability, T/C (second compound 0.0316 µM, first compound 0.1 µM) was 96.7% and the viability, T/C [2] was 92.9%. It also gave a viability, T/C (second compound 0.0316 µM, first compound 1 µM) of 106%, a viability, T/C (second compound 0.0316 µM, first compound 3.16 µM) of 112% and a viability, T/C (second compound 0.0316 µM, first compound 10 µM) of 70%. It also gave a viability, T/C [3] of 107%, a viability, T/C (second compound 0.1 µM, first compound 0.1 µM) of 93.9% and a viability, T/C [4] of 98.5%. The viability, T/C (second compound 0.1 µM, first compound 1 µM) was 98.4%, the viability, T/C (second compound 0.1 µM, first compound 3.16 µM) was 100% and the viability, T/C (second compound 0.1 µM, first compound 10 µM) was 71%. For the same compound, the viability, T/C [5] was 99.5%, the viability, T/C (second compound 0.316 µM, first compound 0.1 µM) was 91.9% and the viability, T/C [6] was 94.6%. For the same compound, the viability, T/C (second compound 0.316 µM, first compound 1 µM) was 106%, the viability, T/C (second compound 0.316 µM, first compound 3.16 µM) was 105% and the viability, T/C (second compound 0.316 µM, first compound 10 µM) was 65.6%. The viability, T/C [7] was 91%, the viability, T/C (second compound 1 µM, first compound 0.1 µM) was 86.3% and the viability, T/C [8] was 101%. The viability, T/C (second compound 1 µM, first compound 1 µM) was 96.3%, the viability, T/C (second compound 1 µM, first compound 3.16 µM) was 94.1% and the viability, T/C (second compound 1 µM, first compound 10 µM) was 67.8%. The viability, T/C [9] was 76.5%, the viability, T/C (second compound 3.16 µM, first compound 0.1 µM) was 77.5% and the viability, T/C [10] was 73.3%. It also gave a viability, T/C (second compound 3.16 µM, first compound 1 µM) of 80.1%, a viability, T/C (second compound 3.16 µM, first compound 3.16 µM) of 98.4% and a viability, T/C (second compound 3.16 µM, first compound 10 µM) of 66.5%. For the same compound, the viability, T/C [11] was 82.2%, the viability, T/C (second compound 10 µM, first compound 0.1 µM) was 73.5% and the viability, T/C [12] was 83.1%. It also gave a viability, T/C (second compound 10 µM, first compound 1 µM) of 81.8%, a viability, T/C (second compound 10 µM, first compound 3.16 µM) of 95.4% and a viability, T/C (second compound 10 µM, first compound 10 µM) of 73.8%.
Compound `Cc1[nH]c2ccccc2c1CCNCc1ccc(/C=C/C(=O)NO)cc1` + Cc1[nH]c2ccc(F)cc2c1-c1nc2c3cccnc3c3ncccc3c2[nH]1 has a pIC50 (second compound 0.0316 µM) of less than 6.50, a pIC50 (second compound 0.1 µM) of less than 6.50 and a pIC50 (second compound 0.316 µM) of less than 6.50. For the same compound, the pIC50 (second compound 1 µM) was less than 6.50, the pIC50 (second compound 3.16 µM) was less than 6.50 and the pIC50 (second compound 10 µM) was less than 6.50. For the same compound, the viability, T/C (second compound 0.0316 µM, first compound 0.000999 µM) was 109%, the viability, T/C (second compound 0.0316 µM, first compound 0.00316 µM) was 90% and the viability, T/C (second compound 0.0316 µM, first compound 0.00999 µM) was 101%. For the same compound, the viability, T/C [1] was 102%, the viability, T/C (second compound 0.0316 µM, first compound 0.0999 µM) was 106% and the viability, T/C [2] was 94.5%. The viability, T/C (second compound 0.1 µM, first compound 0.000999 µM) was 115%, the viability, T/C (second compound 0.1 µM, first compound 0.00316 µM) was 94.5% and the viability, T/C (second compound 0.1 µM, first compound 0.00999 µM) was 91.1%. The viability, T/C [3] was 93.4%, the viability, T/C (second compound 0.1 µM, first compound 0.0999 µM) was 95.7% and the viability, T/C [4] was 88.6%. For the same compound, the viability, T/C (second compound 0.316 µM, first compound 0.000999 µM) was 98.8%, the viability, T/C (second compound 0.316 µM, first compound 0.00316 µM) was 84.8% and the viability, T/C (second compound 0.316 µM, first compound 0.00999 µM) was 94.2%. The viability, T/C [5] was 104%, the viability, T/C (second compound 0.316 µM, first compound 0.0999 µM) was 100% and the viability, T/C [6] was 86.7%. For the same compound, the viability, T/C (second compound 1 µM, first compound 0.000999 µM) was 94.3%, the viability, T/C (second compound 1 µM, first compound 0.00316 µM) was 88.6% and the viability, T/C (second compound 1 µM, first compound 0.00999 µM) was 96.8%. The viability, T/C [7] was 93.5%, the viability, T/C (second compound 1 µM, first compound 0.0999 µM) was 98.9% and the viability, T/C [8] was 90.8%. It also gave a viability, T/C (second compound 3.16 µM, first compound 0.000999 µM) of 75.2%, a viability, T/C (second compound 3.16 µM, first compound 0.00316 µM) of 78.3% and a viability, T/C (second compound 3.16 µM, first compound 0.00999 µM) of 86%. For the same compound, the viability, T/C [9] was 74.5%, the viability, T/C (second compound 3.16 µM, first compound 0.0999 µM) was 78% and the viability, T/C [10] was 67.3%. It also gave a viability, T/C (second compound 10 µM, first compound 0.000999 µM) of 74.8%, a viability, T/C (second compound 10 µM, first compound 0.00316 µM) of 77.6% and a viability, T/C (second compound 10 µM, first compound 0.00999 µM) of 71.8%. It also gave a viability, T/C [11] of 75.9%, a viability, T/C (second compound 10 µM, first compound 0.0999 µM) of 74.8% and a viability, T/C [12] of 63.4%.
